Experimental data from patent publication US20250327794A1, “FLUOROMETRIC METHODS FOR DETECTION OF ALLERGIC SENSITIVITY TO ENVIRONMENTAL, FOODSTUFF, AND MEDICAMENT STIMULANTS” (CELL SCIENCE SYSTEMS CORPORATION, priority 2022, published 2025).

What was measured:
white blood cells = test: DHR 123 flow cytometry blood test: RH 123 fluorescence (ROS generation), channel 1 FL1-A; type: cell-based, human
Procedure: See FIG. 1 and FIG. 2 for exemplary flow diagrams of the method. Whole peripheral blood samples were obtained from subjects and collected in lithium heparin tubes. Samples were diluted 1:100 in electrolyte solution supplemented with 10% heat-inactivated fetal-bovine serum (FBS). Samples were incubated with 5 μg of dihydrorhodamine 123 (DHR 123) at 37° C. under 5% CO2 for 15 min. Cells were treated with 1 μM Phorbol-12-Myristate-13-Acetate (PMA), an exogenous stimulant, or an equal volume of PBS (negative control), and incubated for 30 min to 1 hr.
RBCs of the sample were lysed, fixed, and removed prior to flow cytometry analysis. Briefly, cells were lysed and partially fixed using 3% (v/v) lysis buffer and 1% (v/v) formaldehyde in phosphate-buffered saline (PBS). Samples were incubated for 2 min or until turbidity of the solution was resolved indicating essentially complete lysis of RBCs, and the sample centrifuged at 300×g for 5 min at room temperature (RT). RBC-containing supernatant was discarded, and remaining leukocytes were fixed using 3.7% (v/v) formaldehyde and centrifuged at 300×g at RT for 5 min. Samples were washed twice in FBS and centrifuged at 300×g at RT for 5 min. After washing, the cells were blocked with FC block (Invitrogen, USA) and 2% FBS for 30 min on ice and then incubated with staining buffer containing manufacturer-specified dilutions of fluorophore-conjugated antibodies specific for granulocytes (e.g., neutrophils, basophils, and/or eosinophils) or granulocyte activation (e.g., degranulation). Cells were washed twice and resuspended in PBS prior to analysis using a BD Accuri C6 Flow Cytometer (BD Biosciences, USA). Statistical analysis was performed using the FlowJo v10 (FlowJo, Oregon, USA).
A sample of whole blood was treated with DHIR 123 or mock at 37° C. for 15 min, then treated with phorbol 12-myristate 13-acetate (PMA) and incubated for 25 min. Red and white blood cells were lysed and fixed as described above. Flow cytometry results are shown in FIGS. 3A-3D for negative control (FIG. 3A), DHR 123 only treated control (FIG. 3B), DHR 123+PMA treated (FIG. 3C), as well as an overlap plot of each (FIG. 3D).
Provided below is an exemplary protocol for DHR 123 treatment and cell surface marker staining for DHR 123 flow cytometry blood test. • 1. Obtain a blood sample from a subject; e.g., • 1 mL blood sample for each person was obtained. • 2. Treat with DHR 123 and/or stimulant (e.g., PMA); e.g., • 100 μL whole blood was used for each group: 1) cell only control; 2) DHR 123 loaded cells; 3) DHR 123 loaded cells stimulated with stimulant (e.g., PMA). […] Fix and lyse the cells; e.g., • After stimulant treatment, the cells were fixed and red blood cells were concurrently lysed by adding lysis/fixation solution (e.g., 850 μL (800 μl PBS, 25 μL lyse solution, […])) and incubating 5 min at room temperature. • 4. Prepare cells for staining; e.g., • Cells were centrifuged and the supernatant discarded; • Formaldehyde solution (e.g., 500 μL, 3.7% formaldehyde) was added and incubated for 5 more minutes for fixation; • Cells were centrifuged and the supernatant discarded; • Cells were washed with 350 μL PBS twice, and then centrifuged before discarding the supernatant; • Cells were centrifuged and the supernatant discarded; • 5. Stain the cells; e.g., • 80 μL staining buffer (PBS+0.1% albumin+0.01% tween 20) was added, along with 5 μL of antibody solution for CD16, CD123 and CD193 and the sample incubated for 30 min at room temperature; • 6. Prepare cells for flow cytometry; e.g., • Cells were washed with PBS, centrifuged and the supernatant discarded; • Cells were resuspended in 125 μL PBS for subsequent flow cytometer analysis.
Flow cytometry analysis of human blood samples was performed following exposure to exogenous dust mite (“DM”) stimulant using time course measurements of RH 123 and PI fluorescence. […]

neutrophils = test: Neutrophil activation: CD16 surface marker fluorescence (channel 2 FL2-A); type: cell-based, human
Text: Dead cells were gated and removed using PI(+) viability marker. The cell surface marker CD33 was used to distinguish the lymphocyte population from the monocyte and granulocyte populations. The cell surface marker CD16 was used to distinguish neutrophil and eosinophil populations from the monocytes and lymphocyte populations. The cell surface marker CD123 was used to distinguish the basophil population. Activated granulocytes were observed using the granulocyte activation surface marker CD63(+). Activated basophil and eosinophil populations were observed using surface markers […], in-tandem with CD63(+). Activated basophils were observed using the surface marker profile of CD63(+)/CD203c(+). Activated eosinophils were observed using the surface marker profile of CD63(+)/CD193(+)/CD203c(+). Activated neutrophils were observed using the surface marker profile of CD63(+)/CD193(−)/CD203(−). Activation of subpopulations was quantified as fold-change compared to the mean of the negative control samples.
Activation of neutrophils from human blood samples following exposure to exogenous stimulants was investigated using flow cytometry analysis of R123 fluorescence, as well as cell surface markers CD16, CD193, and CD123, and side scattering profiles. Density plots for RH 123 (channel 1; FL1-A), CD16 (channel 2; FL2-A), CD193 (channel 3, FL3-A), and CD123 (channel 4, FL4-A) following exposure to dust mite stimulant for 1.5 hours are shown in FIGS. 19A-19L (DHR 123 only: FIGS. 19A-19D; DHR 123+PMA stimulant: FIGS. 19E-19H; and DHR 123+DM stimulant: FIGS. 19I-19L). […] Histograms of CD16 fluorescence at 1.5 hours after stimulant exposure are shown in FIGS. 20A-20C (DHR 123 control: FIG. 20A, MFI=27956; DHR 123+PMA stimulant: FIG. 20B, MFI=11120; and DHR 123+DM stimulant: FIG. 20C, MFI=16358). […]

[1] = after 40-minute stimulation of PMA

CCCCCCCCCCCCCC(=O)O[C@@H]1[C@@H](C)[C@@]2(O)[C@@H](C=C(CO)C[C@]3(O)C(=O)C(C)=C[C@@H]23)[C@@H]2C(C)(C)[C@]12OC(C)=O [PMA, Phorbol-12-Myristate-13-Acetate]
activation of granulocyte populations (summary of Example 2) (white blood cells): induced the activation of all granulocyte populations
stimulation of lymphocytes (in words) (white blood cells; CD33(−) lymphocyte population (M1)): not stimulated
Mean FL1-A (0.5 h) (white blood cells; R123, 0.5 h, PMA, RWP1 2.5 μL, MLK, CUC, BAS 5 μL per 100 μL blood (Table 5)): 58,792.96
Mean FL1-A (1.5 h) (white blood cells; R123, 1.5 h, PMA, RWP1 2.5 μL, MLK, CUC, BAS 5 μL per 100 μL blood (Table 5)): 168,741.44
Mean FL1-A (2.5 h) (white blood cells; R123, 2.5 h, PI stained, PMA, RWP1 2.5 μL, MLK, CUC, BAS 5 μL per 100 μL blood (Table 5)): 361,510.02
MFI (0.5 h) FL1-A (white blood cells; RH 123, 0.5 h incubation, PMA or DM 2 μL/100 μL blood): 5,076.27
MFI (1.5 h) FL1-A (white blood cells; RH 123, 1.5 h incubation, PMA or DM 2 μL/100 μL blood): 14,093.83
MFI (2.5 h) FL1-A (white blood cells; RH 123, 2.5 h, increased stimulant, 8 μL DM or RWP per 100 μL blood (Table 7)): 10,553.44
MFI (2.5 h) FL1-A (white blood cells; RH 123, 2.5 h incubation, PI stained, PMA or DM 2 μL/100 μL blood): 9,353.98
RH 123 average intensity of peak (white blood cells; [1]): about 10^6 unit
RH 123 average intensity relative to negative control (DHR 123 only) (white blood cells; [1]): ~500 times
RH 123 fluorescence / ROS generation (in words) (white blood cells; vs cells loaded with DHR 123 only): strong green fluorescence
CD16 fluorescence signal intensity over time (neutrophils; 1-3 hr incubation, DHR 123 and PMA): decreased signal intensity over time
expression of CD16 surface marker (in words) (neutrophils; 1.5 hours after stimulant exposure): greatly reduced
mean fluorescent intensity (MFI) of CD16 surface marker (channel 2; FL2-A) (neutrophils; 1.5 hours exposure, DHR 123 only control MFI=27956): 11120
